{"source": "patent US20260194517A1", "about": "“FRUCTOSE-1,6-DIPHOSPHATE OPTICAL PROBE, AND PREPARATION METHOD THEREFOR AND USE THEREOF” (EAST CHINA UNIVERSITY OF SCIENCE AND TECHNOLOGY, priority 2022, published 2026)", "data": [{"test_system": "not listed separately", "assay": "Screening of linker-mutated cpYFP optical probes for response to fructose-1,6-bisphosphate", "format": "biochemical", "conditions": "linker mutants of CggR(88-340)-cpYFP; 485 nm/420 nm signal ratio of sample relative to control", "description": "The invention also provides use of fructose-1,6-bisphosphate optical probes in real-time localization, quantitative detection and high-throughput compound screening of fructose-1,6-bisphosphate. In one aspect, the fructose-1,6-bisphosphate optical probe, preferably linked with signal peptides at different parts of the cell, is transferred into cells for real-time localization of fructose-1,6-bisphosphate by detecting the strength of fluorescence signals in cells, corresponding quantitative detection of fructose-1,6-bisphosphate is performed by a fructose-1,6-bisphosphate standard titration curve. […] In the embodiment involving cpYFP, the ratio is the ratio of the ratio of the sample's 485-nanometer fluorescence signal to the 420-nanometer fluorescence signal to the corresponding ratio of the control. The fructose-1,6-bisphosphate standard titration curve of the present invention is drawn based on the fluorescence signal of the fructose-1,6-bisphosphate optical probe under different concentrations of fructose-1,6-bisphosphate. The fructose-1,6-bisphosphate optical probe described herein is directly transferred into cells, which is more accurate without time-consuming sample processing process during the real-time localization and quantitative detection of fructose-1,6-bisphosphate. When the fructose-1,6-bisphosphate optical probe of the present invention is used for high-throughput compound screening, different compounds are added to the cell culture fluid, and the change of fructose-1,6-bisphosphate content is measured, so as to screen out compounds that affect the change of fructose-1,6-bisphosphate content.\n• 1. An expression vector (such as a pCDF-based fructose-1,6-bisphosphate optical probe expression vector) was transform into BL21 (DE3) cells, and invert-cultured overnight, and clones were picked from the plate into a 250 ml Erlenmeyer flask, and placed in a 37° C. shaker, cultured at 220 rpm to OD=0.4-0.8, add 1/1000 (v/v) IPTG (1 M), and induced expression at 18° C. for 24-36 h. • 2. After induction, cells were harvested by centrifugation at 4000 rpm for 30 min, resuspended in 50 mM phosphate buffer and disrupted ultrasonically until the broth were clear, centrifuged at 9600 rpm at 4° C. for 20 min. • 3. The centrifuged supernatant was purified by a self-packed nickel-column affinity chromatography column to obtain the protein, and the protein after nickel-column affinity chromatography was then passed through a self-packed desalting column to obtain the protein dissolved in 100 mM HEPES buffer (pH 7.4). • 4. After the purified protein was identified by SDS-PAGE, the probe was diluted with assay buffer (100 mM HEPES, 100 mM NaCl, pH 7.4) into a protein solution with a final concentration of 0.2-5 μM. Fructose-1,6-bisphosphate was prepared as a stock solution at a final concentration of 50 mM with assay buffer (100 mM HEPES, 100 mM NaCl, pH 7.4). • 5. 100 μl of 1 μM protein solution was taken and incubated at 37° C. for 10 min, […], and measured the fluorescence intensity of the protein at 528 nm after excitation at 420 nm and fluorescence intensity of the protein at 528 nm after excitation at 485 nm. The fluorescence excitation and emission measurement of the samples were completed by a multifunctional fluorescence microplate reader. • 6.100 μl of 1 μM protein solution was taken, incubated at 37° C. for 10 min, tryptophan was added, and measured the absorption and fluorescence spectra of the protein. The determination of the absorption spectrum and fluorescence spectrum of the sample was completed by a spectrophotometer and a fluorescence spectrophotometer.\nOptical probe mutants were constructed based on PCDF-CggR(88-340)-176/177-CPYFP, PCDF-CggR(88-340)-176/178-CPYFP, PCDF-CggR(88-340)-177/181-CPYFP, PCDF-CggR(88-340)-179/180-CPYFP, PCDF-CggR(88-340)-182/184-CPYFP, PCDF-CggR(88-340)-182/185-CPYFP, PCDF-CggR(88-340)-203/206-CPYFP, PCDF-CggR(88-340)-203/207-CPYFP and PCDF-CggR-203/208(88-340)-CPYFP. […]", "values": [{"molecule": "Serial number 4: cpYFP at 176/177 of CggR(88-340); CggR: G177M/L178N; SEQ ID NO: 10", "Standardized fluorescence signal ratio": 4.54}, {"molecule": "Serial number 7: cpYFP at 176/177 of CggR(88-340); CggR: G177M/L178N/Q185A; SEQ ID NO: 11", "Standardized fluorescence signal ratio": 4}, {"molecule": "Serial number 8: cpYFP at 176/177 of CggR(88-340); CggR: G177M/L178N/Q185T; SEQ ID NO: 12", "Standardized fluorescence signal ratio": 4}, {"molecule": "Serial number 9: cpYFP at 176/177 of CggR(88-340); CggR: G177M/L178N/Q185D; SEQ ID NO: 13", "Standardized fluorescence signal ratio": 4.17}, {"molecule": "Serial number 16: cpYFP at 182/184 of CggR(88-340); CggR: N184V/Q185P/D181E/V182G/G177L CPYFP: Y1V; SEQ ID NO: 14", "Standardized fluorescence signal ratio": 11.6}, {"molecule": "Serial number 17: cpYFP at 182/184 of CggR(88-340); CggR: N184V/Q185P/D181E/V182G/G177L CPYFP: Y1I; SEQ ID NO: 15", "Standardized fluorescence signal ratio": 12}, {"molecule": "Serial number 20: cpYFP at 182/184 of CggR(88-340); CggR: N184V/Q185P/D181E/V182G CPYFP: Y1V; SEQ ID NO: 16", "Standardized fluorescence signal ratio": 9.6}]}, {"test_system": "H1299 cells", "assay": "Dynamic monitoring of cytoplasmic fructose-1,6-bisphosphate in H1299 cells expressing the optical probe", "format": "cell-based", "conditions": "0.5 mM 3-BrPA in HBSS, 30-min period, H1299 cells with cytoplasm-expressed probe", "method": "• 1. The pCDNA3.1+-based fructose-1,6-bisphosphate optical probe plasmid was transfected into HEK293 cells by the transfection reagent Lipofectamine2000 (Invitrogen), and cultured in a cell incubator at 37° C., 5% CO2. Fluorescence detection was performed 24-36 h after the exogenous gene was fully expressed. • 2. After induction of expression, adherent HEK293 cells were washed three times with PBS and placed in HBSS solution for fluorescence microscopy and microplate reader assays, respectively.\nAfter H1299 cells were transfected with the cytoplasm-expressed optical probe plasmid for 36 h, they were washed with PBS and placed in HBSS solutions containing 0 mM 3-BrPA and 0.5 mM 3-BrPA, and the changes in the ratio of the fluorescence intensity at 528 nm emission and at 420 nm excitation and the fluorescence intensity at 528 nm emission at 485 nm excitation were detected over a 30-min period.", "units": {"ratio of 420/485, maximum relative to the initial value": "times the initial value"}, "values": [{"molecule": "O=C(O)C(=O)CBr", "note": "[3-BrPA]", "ratio of 420/485, maximum relative to the initial value": 3.7}]}]}
